How the values were obtained:
Type in all cases: in vivo
[1] = tested on: velvetleaf (Abutilon theophrasti medicus); experiment: Test Example 2: herbicidal effect by soil application to upland field; details: soil surface spray, upland field soil, 1,000 g active ingredient per hectare, 21st day after application
Method in brief: (§1)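 After sowing and covering, the soil received an even aqueous spray of wettable powder at a rate of 1,000 g active ingredient/ha (1,000 L/ha). Ratings of herbicidal effect followed a standard scale 21 days post-treatment, with plants held in a greenhouse.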

[2] = tested on: green foxtail (Setaria viridis (L.) P. Beauv.); experiment: as above; details: soil surface spray, upland field soil, 1,000 g active ingredient per hectare, 21st day after application
Method in brief: as §1

[3] = tested on: barnyardgrass (Echinochloa crus-galli (L.) P. Beauv. var. crus-galli); experiment: as above; details: soil surface spray, upland field soil, 1,000 g active ingredient per hectare, 21st day after application
Method in brief: as §1

[4] = tested on: slender amaranth (Amaranthus viridis L.); experiment: as above; details: soil surface spray, upland field soil, 1,000 g active ingredient per hectare, 21st day after application
Method in brief: as §1

[5] = tested on: velvetleaf (Abutilon theophrasti medicus); experiment: Test Example 3: herbicidal effect by application to upland field (foliage treatment); details: foliage treatment, 1,000 g active ingredient per 1 hectare, 14th day after application, greenhouse
Method in brief: (§2)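 Post-emergence spray at 1,000 g AI/ha of wettable powder in water (1,000 L/ha), onto seedlings grown 2 weeks in greenhouse field-soil pots. Graded day 14.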

[6] = tested on: green foxtail (Setaria viridis (L.) P. Beauv.); experiment: as above; details: foliage treatment, 1,000 g active ingredient per 1 hectare, 14th day after application, greenhouse
Method in brief: as §2

[7] = tested on: barnyardgrass (Echinochloa crus-galli (L.) P. Beauv. var. crus-galli); experiment: as above; details: foliage treatment, 1,000 g active ingredient per 1 hectare, 14th day after application, greenhouse
Method in brief: as §2

[8] = tested on: slender amaranth (Amaranthus viridis L.); experiment: as above; details: foliage treatment, 1,000 g active ingredient per 1 hectare, 14th day after application, greenhouse
Method in brief: as §2

[9] = tested on: Japanese bulrush (Scirpus juncoides Roxb.); experiment: Test Example 1: herbicidal effect by soil application to paddy field; details: paddy field soil application; active ingredient 1,000 g per 1 hectare; wettable powder added dropwise to water surface the day after sowing; examined on the 21st day after application
Method in brief: (§3)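 Plants were sown in flooded (3 cm) paddy soil and evaluated for herbicidal effect 21 days after soil application in a greenhouse.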

[10] = tested on: heartshape false pickerelweed (Monochoria vaginalis (Burm.f.) C.Presl); experiment: as above; details: paddy field soil application; active ingredient 1,000 g per 1 hectare; wettable powder added dropwise to water surface the day after sowing; examined on the 21st day after application
Method in brief: as §3

[11] = tested on: early watergrass (Echinochloa oryzicola Vasing); experiment: as above; details: paddy field soil application; active ingredient 1,000 g per 1 hectare; wettable powder added dropwise to water surface the day after sowing; examined on the 21st day after application
Method in brief: as §3

Row | SMILES | herbicidal effect (index), Velvetleaf [1] | herbicidal effect (index), Green Foxtail [2] | herbicidal effect (index), Barnyardgrass [3] | herbicidal effect (index), Slender Amaranth [4] | herbicidal effect, Velvetleaf [5] | herbicidal effect, Green Foxtail [6] | herbicidal effect, Barnyardgrass [7] | herbicidal effect, Slender Amaranth [8] | herbicidal effect, Scirpus juncoides Roxb. [9] | herbicidal effect, Monochoria vaginalis (Burm. f.) C. Presl [10] | herbicidal effect, Echinochloa oryzicola Vasing [11]
1 | Cn1ncc(C(=O)c2ccc(C(F)(F)F)n(CC3CCCO3)c2=O)c1O (stereo not shown) [IV-129] | 5 (90% or more of herbicidal effect and crop phytotoxicity) | 3 (50 to less than 70% of herbicidal effect and crop phytotoxicity) | 4 (70 to less than 90% of herbicidal effect and crop phytotoxicity) | 5 (90% or more of herbicidal effect and crop phytotoxicity) | 5 (90% or more of herbicidal effect and crop phytotoxicity) | 4 (70 to less than 90% of herbicidal effect and crop phytotoxicity) | 5 (90% or more of herbicidal effect and crop phytotoxicity) | 5 (90% or more of herbicidal effect and crop phytotoxicity) | 5 (90% or more of herbicidal effect and crop phytotoxicity) | 5 (90% or more of herbicidal effect and crop phytotoxicity) | 5 (90% or more of herbicidal effect and crop phytotoxicity)
2 | CCCCCCCC(=O)Oc1c(C(=O)c2ccc(C(F)(F)F)n(CC3CCCO3)c2=O)cnn1C (stereo not shown) [IV-130] | 5 (90% or more of herbicidal effect and crop phytotoxicity) | 4 (70 to less than 90% of herbicidal effect and crop phytotoxicity) | 4 (70 to less than 90% of herbicidal effect and crop phytotoxicity) | 5 (90% or more of herbicidal effect and crop phytotoxicity) | 4 (70 to less than 90% of herbicidal effect and crop phytotoxicity) | 4 (70 to less than 90% of herbicidal effect and crop phytotoxicity) | 5 (90% or more of herbicidal effect and crop phytotoxicity) | 5 (90% or more of herbicidal effect and crop phytotoxicity) | 5 (90% or more of herbicidal effect and crop phytotoxicity) | 5 (90% or more of herbicidal effect and crop phytotoxicity) | 5 (90% or more of herbicidal effect and crop phytotoxicity)
3 | CCCS(=O)(=O)Oc1c(C(=O)c2ccc(C(F)(F)F)n(CC3CCCO3)c2=O)cnn1C (stereo not shown) [IV-140] | 5 (90% or more of herbicidal effect and crop phytotoxicity) | 5 (90% or more of herbicidal effect and crop phytotoxicity) | 5 (90% or more of herbicidal effect and crop phytotoxicity) | 5 (90% or more of herbicidal effect and crop phytotoxicity) | 5 (90% or more of herbicidal effect and crop phytotoxicity) | 3 (50 to less than 70% of herbicidal effect and crop phytotoxicity) | 5 (90% or more of herbicidal effect and crop phytotoxicity) | 5 (90% or more of herbicidal effect and crop phytotoxicity) | 5 (90% or more of herbicidal effect and crop phytotoxicity) | 5 (90% or more of herbicidal effect and crop phytotoxicity) | 5 (90% or more of herbicidal effect and crop phytotoxicity)
4 | Cn1ncc(C(=O)c2ccc(C(F)(F)F)n(CC3CCOC3)c2=O)c1O (stereo not shown) [IV-143] | 5 (90% or more of herbicidal effect and crop phytotoxicity) | 5 (90% or more of herbicidal effect and crop phytotoxicity) | 5 (90% or more of herbicidal effect and crop phytotoxicity) | 5 (90% or more of herbicidal effect and crop phytotoxicity) | 5 (90% or more of herbicidal effect and crop phytotoxicity) | 5 (90% or more of herbicidal effect and crop phytotoxicity) | 5 (90% or more of herbicidal effect and crop phytotoxicity) | 5 (90% or more of herbicidal effect and crop phytotoxicity) | 5 (90% or more of herbicidal effect and crop phytotoxicity) | 5 (90% or more of herbicidal effect and crop phytotoxicity) | 5 (90% or more of herbicidal effect and crop phytotoxicity)
5 | CNn1c(C(F)(F)F)ccc(C(=O)c2cnn(C)c2O)c1=O [IV-146] | 5 (90% or more of herbicidal effect and crop phytotoxicity) | 5 (90% or more of herbicidal effect and crop phytotoxicity) | 5 (90% or more of herbicidal effect and crop phytotoxicity) | 5 (90% or more of herbicidal effect and crop phytotoxicity) | 5 (90% or more of herbicidal effect and crop phytotoxicity) | 5 (90% or more of herbicidal effect and crop phytotoxicity) | 5 (90% or more of herbicidal effect and crop phytotoxicity) | 5 (90% or more of herbicidal effect and crop phytotoxicity) | 5 (90% or more of herbicidal effect and crop phytotoxicity) | 5 (90% or more of herbicidal effect and crop phytotoxicity) | 5 (90% or more of herbicidal effect and crop phytotoxicity)
6 | CCCNn1c(C(F)(F)F)ccc(C(=O)c2cnn(C)c2O)c1=O [IV-148] | 5 (90% or more of herbicidal effect and crop phytotoxicity) | 5 (90% or more of herbicidal effect and crop phytotoxicity) | 5 (90% or more of herbicidal effect and crop phytotoxicity) | 5 (90% or more of herbicidal effect and crop phytotoxicity) | 5 (90% or more of herbicidal effect and crop phytotoxicity) | 5 (90% or more of herbicidal effect and crop phytotoxicity) | 5 (90% or more of herbicidal effect and crop phytotoxicity) | 5 (90% or more of herbicidal effect and crop phytotoxicity) | 5 (90% or more of herbicidal effect and crop phytotoxicity) | 5 (90% or more of herbicidal effect and crop phytotoxicity) | 5 (90% or more of herbicidal effect and crop phytotoxicity)
7 | CC(=O)Oc1c(C(=O)c2ccc(C(F)(F)F)n(C)c2=O)cnn1C [IV-174] | 5 (90% or more of herbicidal effect and crop phytotoxicity) | 5 (90% or more of herbicidal effect and crop phytotoxicity) | 5 (90% or more of herbicidal effect and crop phytotoxicity) | 5 (90% or more of herbicidal effect and crop phytotoxicity) | 5 (90% or more of herbicidal effect and crop phytotoxicity) | 5 (90% or more of herbicidal effect and crop phytotoxicity) | 5 (90% or more of herbicidal effect and crop phytotoxicity) | 5 (90% or more of herbicidal effect and crop phytotoxicity) | 5 (90% or more of herbicidal effect and crop phytotoxicity) | 5 (90% or more of herbicidal effect and crop phytotoxicity) | 5 (90% or more of herbicidal effect and crop phytotoxicity)
8 | Cn1ncc(C(=O)c2ccc(C(F)(F)F)n(C)c2=O)c1OCc1ccccc1 [IV-190] | 5 (90% or more of herbicidal effect and crop phytotoxicity) | 5 (90% or more of herbicidal effect and crop phytotoxicity) | 5 (90% or more of herbicidal effect and crop phytotoxicity) | 5 (90% or more of herbicidal effect and crop phytotoxicity) | 5 (90% or more of herbicidal effect and crop phytotoxicity) | 4 (70 to less than 90% of herbicidal effect and crop phytotoxicity) | 5 (90% or more of herbicidal effect and crop phytotoxicity) | 5 (90% or more of herbicidal effect and crop phytotoxicity) | 5 (90% or more of herbicidal effect and crop phytotoxicity) | 5 (90% or more of herbicidal effect and crop phytotoxicity) | 5 (90% or more of herbicidal effect and crop phytotoxicity)
